Source: article PMC4809498, “Artonin E Induces Apoptosis via Mitochondrial Dysregulation in SKOV-3 Ovarian Cancer Cells” (PLoS ONE, 2016)
Converted amounts (≈) assume the structure as drawn.

What was measured:
[1] = test system: Human periodontal ligament fibroblasts; test: MTT cell viability assay, periodontal fibroblasts; format: cell-based; settings: Human periodontal fibroblast, 24 h treatment
Protocol: Metastatic ovarian adenocarcinoma (SKOV-3) and normal Chinese hamster ovary (CHO) cell lines were originally obtained from the American Type Culture Collection (ATCC; Manassas, VA). SKOV-3 cells were cultured in McCoy’s 5A medium and CHO cells were cultured in F12K medium. A human periodontal ligament fibroblast cell line was purchased from Lonza, USA and maintained in stroma cell basal medium. T1074 (normal immortalized human ovarian surface epithelial cell line) was originally purchased from Applied Biological Materials (abm®) Canada and cultured in Prigrow 1 medium.
The inhibitory effects of artonin E and two positive controls paclitaxel and carboplatin were examined by MTT assay. Cells at a density of 5×10^3cells/well were placed in a 96-well plate and left for 24 h to attach. The attached cells were exposed to artonin E, paclitaxel, and carboplatin at different concentrations and incubated for 24, 48, and 72 h. Subsequently, 20 μL of 5 mg/mL MTT solution was added after drug treatment and the resulting mixture was incubated for 4 h to form purple formazan. Afterward, 100 μL of dimethyl sulfoxide (DMSO) was transferred into each well to dissolve the purple formazan, and results were measured using a microplate reader (Tecan Infinite M 200 PRO, Männedorf, Switzerland) at an absorbance of 570 nm. […]

SKOV-3 cells [2] = test: AO-PI double staining; format: cell-based, human; settings: SKOV-3, 8 μg/mL, 24, 48, 72 h
Protocol: The effect of artonin E in inducing cell death in SKOV-3 cells was determined using acridine orange (AO) and propidium iodide (PI) double staining. SKOV-3 cells were plated at 5×10^5cells in a T75cm^2 flask and incubated overnight to allow attachment. The cells were then exposed to 8 μg/mL of artonin E for 24, 48, and 72 h. After incubation, the treated cells were washed with PBS, and then trypsinized and centrifuged at 1,500 rpm for 5 min. The cells were then resuspended in cold PBS and centrifuged twice to obtain fresh clean pellets. The fresh pellets were mixed with an equal volume of fluorescent dye staining solution (1:1), comprising 10μg/mL AO and 10 μg/mL PI (dissolved in PBS). The freshly stained cell suspension was dropped onto a glass slide and observed under a UV–fluorescence microscope (Leica attached with Q-Flora Software) within 30 min, prior to fading of the fluorescence.

SKOV-3 cells [3] = test: Cell cycle analysis by flow cytometry; format: cell-based, human; settings: SKOV-3, 8 μg/mL, 72 h after treatment
Protocol: SKOV-3 cells at a concentration of 5×10^5 cells were plated into a T75cm^2 flask and incubated overnight to allow attachment. The attached cells were treated with 8 μg/mL of artonin E at different time points. After treatment, the cells were trypsinized and centrifuged at 1,500 rpm for 10 min. The fresh pellets were washed twice with PBS, fixed with 500 μL of 70% cold ethanol, and incubated at −20°C overnight. The remaining ethanol was then removed and the cells were resuspended in PBS containing 20 μL of RNase A (10 μg/mL) and 2 μL of PI (2.5 μg/mL). The resulting mixture was incubated for 30 min at 37°C in the dark. Samples were immediately analyzed using FACS Canto 11 Becton-Dickinson flow cytometry. For each sample, 10,000 cells were measured. ModFit LT software (Verity Software House, Topsham, ME) was used to analyze the percentage of cells at different phases.

cytochrome c = test: Cytochrome c releasing apoptosis assay (Western blot of fractions); format: cell-based, human
Protocol: Cytochrome c releasing apoptosis assay kit (ab65311) was purchased from abcam® (Cambridge, UK). The assay was conducted according to the manufacturer’s instruction. Briefly, SKOV-3 cells were induced with artonin E at different time points. The induced and un-induced cells were collected and centrifuged at […] for 5 minutes at 4°C. The cells were washed twice with 10 mL of ice-cold PBS, centrifuged and collected the pellet. The fresh pellets were then re-suspended with 1.0 mL of 1X cytosol extraction buffer mix containing DTT and Protease Inhibitor and incubated on ice for 10 minutes. Cells were then Dounce-homogenized before centrifuging at 7,000×g for 10 min at 4°C. The supernatant were collected and saved as cytosolic fractions. The remaining pellets were resuspended in 0.1 mL mitochondrial extraction buffer, vortexed for 10 seconds and saved as mitochondrial fractions. Both cytosolic and mitochondrial fractions were applied for protein analysis and proceeded with standard Western blot procedure.
SKOV-3 cells were plated in a 75cm^2 culture flask and exposed to artonin E for 24, 48, and 72 h. […] Protein concentration was determined using a BCA protein assay reagent kit (Bio-Rad, USA). […] The protein bands were detected using pico or femto chemiluminescence (ECL system) and visualized using a UV gel documentation system. […]

caspase-8 = test: Western blot, caspase-8; format: cell-based, human; settings: SKOV-3, 8 μg/mL, after 48 and 72 h
Protocol: (§1) SKOV-3 cells were plated in a 75cm^2 culture flask and exposed to artonin E for 24, 48, and 72 h. Lysis buffer (50 mM Tris–HCl, pH 8.0; 120 mM NaCl, 0.5% NP-40; and 1 mM PMSF) was used to extract the total protein. Protein concentration was determined using a BCA protein assay reagent kit (Bio-Rad, USA). Equal amounts of protein (40 μg) extract were subjected to SDS-PAGE and electroblotted onto a polyvinylidenedifluoride membrane (Bio-Rad). Blots were then blocked with 5% non-fat milk in TBS-Tween buffer 7 (0.12 M Tris-base, 1.5 M NaCl, and 0.1% Tween 20) for 1 h at room temperature. After incubating with the appropriate primary antibody overnight at 4°C, the blots were washed and then incubated with horseradish peroxidase conjugated secondary antibody for 1 h at room temperature. The protein bands were detected using pico or femto chemiluminescence (ECL system) and visualized using a UV gel documentation system. The subsequent primary antibodies, which include those for β-actin (1:10,000), Bax (1:10,000), Bcl-2 (1:10,000), HSP-70 (1:10,000), survivin (1:10,000),caspase -3 (1:10,000), caspase -8 (1:10,000), caspase -9 (1;10,000) and cytochrome c (1:200) were purchased from Abcam, Cambridge, United Kingdom.

caspase-9 = test: Western blot, caspase-9; format: cell-based, human; settings: SKOV-3, 8 μg/mL, as early as 24 h
Protocol: as §1

Bcl-2 = test: Western blot, Bcl-2; format: cell-based, human; settings: SKOV-3, 8 μg/mL
Protocol: as §1

Bax = test: Western blot, Bax; format: cell-based, human; settings: SKOV-3, 8 μg/mL, time-dependent
Protocol: as §1

CC(C)=CCc1c(-c2cc(O)c(O)cc2O)oc2c3c(cc(O)c2c1=O)OC(C)(C)C=C3 [Artonin E, artonin E] was tested, and the IC50 [1] was 67 ± 1 µg/mL (≈ 154 µM), the “induction of apoptosis (AO-PI scoring) vs untreated cells” value (SKOV-3 cells [2]) was “statistically significant (p<0.05) difference” and the “accumulation of cells arrested at the S phase” value (SKOV-3 cells [3]) was “significantly (p<0.05) increased”. The “expression level of cytochrome c in cytosolic fraction” value (cytochrome c; SKOV-3, 8 μg/mL, 24, 48, 72 h) was “increase”, the “expression level of cytochrome c in mitochondrial fraction” value (cytochrome c; SKOV-3, 8 μg/mL, time-dependent (24, 48, 72 h)) was “significantly (p<0.05) decreased” and the “protein expression level of caspase-8” value (caspase-8) was “up-regulated”. For the same compound, the “protein expression level of caspase-9” value (caspase-9) was “significantly (p<0.05) up-regulated”, the Bcl-2 level (Bcl-2; 24 h post treatment) was “significantly lower” and the Bcl-2 level (Bcl-2; after 48 h and 72 h) was “almost diminished”. For the same compound, the “expression of Bax” value (Bax) was “upregulates”.
